For one experiment, the target named is T1, PKCα (Homo sapiens, UniProt P17252).
T1 construct: His6; purchased Millipore; host or cells: baculovirus in Sf21 cells
Put plainly: In vitro enzyme assay (time-resolved fluorescence kinase assay), PKCα, 100 μM ATP. It is filed as biochemical. The protocol: (§1) PKC kinase activity was assayed by time-resolved fluorescence in vitro kinase assay. Unless otherwise indicated, all reagents used for enzyme assays were obtained from Sigma. Specifically, 5 μL N- or C-terminal His6-tagged, recombinant, human PKC, expressed by baculovirus in Sf21 cells (Millipore) was mixed with 5 μL inhibitor (various concentrations, 5% final DMSO), 5 μL Bio-cdc peptide (Biotin-Ahx-[…], 2 μM final concentration, New England Peptide) and 5 μL of ATP (100 μM or 1000 μM final concentration) in 1× reaction buffer, 20 μL final volume.
(§2) Following a sixty minute incubation at room temperature, the reaction was quenched with 5 μL of 0.5 M EDTA pH 7.5.
(§3) Background counts from a minus enzyme control is subtracted from all data. Data (after background correction) are converted to percent activity by dividing by the signal obtained from PKC without drug sample.

The target of the next experiment is T2, PKCθ (Homo sapiens, UniProt Q04759).
T2 construct: His6; purchased Millipore; host or cells: baculovirus in Sf21 cells
Put plainly: In vitro enzyme assay (time-resolved fluorescence kinase assay), PKCθ, 100 μM ATP. The format is biochemical. The protocol:
as §1, §2, §3

Experiment [1] deals with CD3/CD28 induced IL-2 in human T-Blasts. The experiment in a line: T-Blasts CD3/CD28 induced IL-2 assay. The format is cell-based. Particulars: read-out: CD3/CD28-stimulated IL2 in T-blasts EC50. The protocol: T-Blasts CD3/CD28 Induced IL-2 Assay
Human T-Blasts are generated using PHA following standard protocols. T-Blasts are freeze aliquoted and vials thawed as required. […] Seed 2×10^5/100 μL cell suspension per well in flat bottomed 96 well plate. Compound dilutions are prepared from 100% DMSO stocks. A total of 8 serial dilutions are made (1/3 in 100% DMSO). Compounds are diluted 1/50 in growth medium to prepare 4× stocks of each tested concentration. 50 μL from each 4× stock concentration is added to the 100 μL cell suspension and incubated for 30 minutes prior stimulus addition. A 4× stimulus stock is prepared using anti-CD3+anti-CD28 antibodies. Antibody mix is added to the cell/compounds suspension in 50 μL at 5 μg/mL final concentration. Compounds are tested in duplicates. Plates are transferred to 37° C./CO2 incubator for 24 hours. After incubation 130 μL of supernatant is collected for IL-2 determination while MTT toxicity analysis is performed on remaining cells/medium.

[2] abbreviates: 100 μM ATP, read-out: PKCα enzyme IC50.

Counter-ions that a name gives are not always drawn. Like-named read-outs stand apart in the source and are kept apart here.

T2 sequence (Q04759 whole entry): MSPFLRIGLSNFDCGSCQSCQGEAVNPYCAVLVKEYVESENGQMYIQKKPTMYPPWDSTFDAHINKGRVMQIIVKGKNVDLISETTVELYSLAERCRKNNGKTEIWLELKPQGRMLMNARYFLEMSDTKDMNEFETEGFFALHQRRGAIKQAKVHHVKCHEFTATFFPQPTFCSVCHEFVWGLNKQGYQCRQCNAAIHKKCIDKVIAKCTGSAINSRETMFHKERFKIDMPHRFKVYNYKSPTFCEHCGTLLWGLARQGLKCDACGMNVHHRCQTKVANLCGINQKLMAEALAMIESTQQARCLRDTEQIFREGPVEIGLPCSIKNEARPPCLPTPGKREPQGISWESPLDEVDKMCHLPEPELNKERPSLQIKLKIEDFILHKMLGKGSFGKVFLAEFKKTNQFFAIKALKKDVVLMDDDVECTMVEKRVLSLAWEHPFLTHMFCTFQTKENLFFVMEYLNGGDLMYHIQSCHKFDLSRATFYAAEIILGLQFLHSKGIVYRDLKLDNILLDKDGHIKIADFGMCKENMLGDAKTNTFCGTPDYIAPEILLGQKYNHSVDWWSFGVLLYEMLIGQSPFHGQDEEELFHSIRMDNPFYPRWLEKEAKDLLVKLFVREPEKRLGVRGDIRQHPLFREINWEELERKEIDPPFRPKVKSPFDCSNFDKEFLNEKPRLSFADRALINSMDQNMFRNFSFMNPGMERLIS

On to `CC1C(=O)NN=C2COc3ccc(C4CCNCC4)cc3N21` (stereo not drawn) [Example 71, 4-Methyl-6-piperidin-4-yl-2,10-dihydro-9-oxa-1,2,4a-triaza-phenanthren-3-one trifluoroacetic acid], for which the half-maximal inhibitory concentration (IC50) on PKCα (setting [2]) was 1000 to 10000 nM; against PKCθ it was less than 250 nM. Moreover, the EC50 in experiment [1] was less than 250 nM.

`CC1C(=O)NN=C2COc3cc(-c4ccccc4)c(N(C)C4(C)CNC4)cc3N21` (stereo not drawn) [Example 90]: the half-maximal inhibitory concentration (IC50) at PKCα (setting [2]) and at PKCθ was less than 250 nM each time. The EC50 in experiment [1] was less than 250 nM.

On to `C[C@@H]1C(=O)NN=C2COc3cc(-c4ccccc4F)c(N(C)[C@@]4(C)CCN(C)C4)cc3N21` (single isomer, unassigned) [Example 198-3], for which the half-inhibitory concentration (IC50) at PKCα (setting [2]) was 250 to 1000 nM; at PKCθ, less than 250 nM. Further, the EC50 in experiment [1] was less than 250 nM.

Regarding `CC1C(=O)NN=C2COc3cc(-c4cccc(F)c4)c(N(C)C4(C)CN(C)C4)cc3N21` (stereo not drawn) [Example 169], the half-maximal inhibitory concentration (IC50) on PKCα (setting [2]) was 250 to 1000 nM; against PKCθ it was less than 250 nM. Further, the EC50 in experiment [1] was less than 250 nM.

For the molecule `CC1C(=O)NN=C2COc3ccc(OC4(C)CNC4)cc3N21` (stereo not drawn) [Example 69, 4-Methyl-6-(3-methyl-azetidin-3-yloxy)-2,10-dihydro-9-oxa-1,2,4a-triaza-phenanthren-3-one trifluoroacetic acid], the half-inhibitory concentration (IC50) is 1000 to 10000 nM on PKCα (setting [2]) and less than 250 nM against PKCθ. Also, the EC50 in experiment [1] is less than 250 nM.

Consider `C[C@@H]1C(=O)NN=C2COc3cc(F)c(OC4CNC4)cc3N21` [Example 124, (R)-9-(Azetidin-3-yloxy)-8-fluoro-1-methyl-3,5-dihydrobenzo[5,6][1,4]oxazino[3,4-c][1,2,4]triazin-2(1H)-one trifluoroacetic acid], for which the concentration for half-maximal inhibition (IC50) on PKCα (setting [2]) was 1000 to 10000 nM; at PKCθ it was less than 250 nM. Moreover, the EC50 in experiment [1] was less than 250 nM.

As to `Cc1cn(C2(C)CNC2)c2cc3c(cc12)OCC1=NNC(=O)[C@@H](C)N13` [Example 157], the figures for the IC50 at PKCα (setting [2]) and against PKCθ were 250 to 1000 nM and less than 250 nM, respectively. For the same molecule, the EC50 in experiment [1] was less than 250 nM.

Consider `CC(C)N1CC(C)(Nc2cc3c(cc2C2CCOCC2)OCC2=NNC(=O)C(C)N23)C1` (stereo not drawn) [Example 126, 9-((1-Isopropyl-3-methylazetidin-3-yl)amino)-1-methyl-8-(tetrahydro-2H-pyran-4-yl)-3,5-dihydrobenzo[5,6][1,4]oxazino[3,4-c][1,2,4]triazin-2(1H)-one trifluoroacetic acid], for which the IC50 at PKCα (setting [2]) was 1000 to 10000 nM; at PKCθ it was less than 250 nM. The EC50 in experiment [1] is 250 to 1000 nM.

As for `CC1C(=O)NN=C2COc3cc(-c4ccc(C#N)cc4)c(NC4CNC4)cc3N21` (racemic) [Example 41], the IC50 on PKCα (setting [2]) was 1000 to 10000 nM; on PKCθ, 250 to 1000 nM. Also, the EC50 in experiment [1] fell in the range of 250 to 1000 nM.

With `C[C@@H]1C(=O)NN=C2COc3cc(-c4ccccc4CCO)c(N(C)C4(C)CN(C)C4)cc3N21` [Example 180], the IC50 at PKCα (setting [2]) is 1000 to 10000 nM; at PKCθ it was less than 250 nM. Further, in experiment [1], the EC50 was less than 250 nM.

`CC1C(=O)NN=C2COc3c(cc(NC4CNC4)c(F)c3F)N21` (stereo not drawn) [Example 114, 9-(Azetidin-3-ylamino)-7,8-difluoro-1-methyl-3,5-dihydrobenzo[5,6][1,4]oxazino[3,4-c][1,2,4]triazin-2(1H)-one trifluoroacetic acid]: the 50% inhibitory concentration (IC50) on PKCα (setting [2]) is 1000 to 10000 nM; against PKCθ, less than 250 nM. Further, the EC50 in experiment [1] was less than 250 nM.

Take `C[C@@H]1C(=O)NN=C2COc3ccc([C@H]4CCN[C@H](Cc5ccccc5)C4)cc3N21` (single isomer, unassigned) [Example 109-1, trifluoroacetic acid]: the IC50 at PKCα (setting [2]) was 1000 to 10000 nM; on PKCθ, less than 250 nM. Besides, the EC50 in experiment [1] was less than 250 nM.

In the case of `CC(=O)N1CC(C)(N(C)c2cc3c(cc2-c2ccccc2F)OCC2=NNC(=O)[C@@H](C)N23)C1` [Example 183, (R)-6-[(1-Acetyl-3-methyl-azetidin-3-yl)-methyl-amino]-7-(2-fluoro-phenyl)-4-methyl-2,10-dihydro-9-oxa-1,2,4a-triaza-phenanthren-3-one], the figures for the half-inhibitory concentration (IC50) at PKCα (setting [2]) and against PKCθ were 1000 to 10000 nM and less than 250 nM, respectively. Moreover, the EC50 in experiment [1] was 250 to 1000 nM.

As to `CC1C(=O)NN=C2COc3cc(F)c(C4CCNCC4)cc3N21` (stereo not drawn) [Example 72], the concentration for half-maximal inhibition (IC50) at PKCα (setting [2]) lay within 1000 to 10000 nM; on PKCθ, 250 to 1000 nM. In addition, the EC50 in experiment [1] is 1000 to 10000 nM.

Regarding `CC1NCC1Nc1ccc2c(c1)N1C(=NNC(=O)C1C)CO2` (stereo not drawn) [Example 118, 4-Methyl-6-(2-methyl-azetidin-3-ylamino)-2,10-dihydro-9-oxa-1,2,4a-triaza-phenanthren-3-one trifluoroacetic acid], the half-maximal inhibitory concentration (IC50) at PKCα (setting [2]) was 1000 to 10000 nM; at PKCθ, 250 to 1000 nM.

Take `COc1ccc(-c2cc3c(cc2[C@@H]2CCN(C)C[C@@H]2C)N2C(=NNC(=O)[C@H]2C)CO3)c(F)c1` [Example 201]: the IC50 on PKCα is less than 250 nM. Further, the EC50 in experiment [1] is less than 250 nM.

For the molecule `C[C@@H]1C(=O)NN=C2COc3cc(-c4c(F)cccc4F)c([C@@H]4CCN(C)C[C@@H]4C)cc3N21` [Example 245, (R)-7-(2,6-Difluoro-phenyl)-6-((3R,4R)-1,3-dimethyl-piperidin-4-yl)-4-methyl-2,10-dihydro-9-oxa-1,2,4a-triaza-phenanthren-3-one], on PKCα (setting [2]), the IC50 lay within 250 to 1000 nM. Further, the EC50 in experiment [1] is less than 250 nM.

Consider `C[C@@H]1C(=O)NN=C2COc3cc(C(F)(F)F)c([C@H](C)C4(C)CNC4)cc3N21` (single isomer, unassigned) [Example 147-2, trifluoroacetic acid], for which the IC50 at PKCα (setting [2]) and at PKCθ was 1000 to 10000 nM throughout.

`COc1ccc(F)c(-c2cc3c(cc2[C@@H]2CCN(C)C[C@@H]2C)N2C(=NNC(=O)[C@H]2C)CO3)c1` [Example 241] had an IC50 against PKCθ of less than 250 nM. Besides, in experiment [1], the EC50 was less than 250 nM.

Consider `C[C@H]1C(=O)NN=C2COc3cc(C(F)(F)F)c(NC4CNC4)cc3N21` (single isomer, unassigned) [Example 53-1, trifluoroacetic acid], for which the concentration for half-maximal inhibition (IC50) on PKCα (setting [2]) is 1000 to 10000 nM. In addition, in experiment [1], the EC50 fell in the range of 250 to 1000 nM.

Take `C[C@H]1C(=O)NN=C2COc3cc(C(F)(F)F)c(NC4(C)CNC4)cc3N21` [Example 100-2, (S)-1-Methyl-9-((3-methylazetidin-3-yl)amino)-8-(trifluoromethyl)-3,5-dihydrobenzo[5,6][1,4]oxazino[3,4-c][1,2,4]triazin-2(1H)-one trifluoacetic acid salt]: the IC50 on PKCα (setting [2]) lay in the range of 250 to 1000 nM. In addition, the EC50 in experiment [1] was in the range of 250 to 1000 nM.

Turning to `Cc1cc2c(cc1NC1(C)CNC1)N1C(=NNC(=O)C1C)CO2` (stereo not drawn) [Example 98, 4,7-Dimethyl-6-(3-methyl-azetidin-3-ylamino)-2,10-dihydro-9-oxa-1,2,4a-triaza-phenanthren-3-one trifluoroacetic acid], the half-maximal inhibitory concentration (IC50) at PKCα (setting [2]) and against PKCθ was 1000 to 10000 nM throughout.

With `C[C@@H]1C(=O)NN=C2COc3cc(C(F)(F)F)c(NC4(C)CNC4)cc3N21` (single isomer, unassigned) [Example 100-1, trifluoroacetic acid], the half-inhibitory concentration (IC50) on PKCα (setting [2]) was in the range of 1000 to 10000 nM. Also, the EC50 in experiment [1] is less than 250 nM.

Consider `C[C@H]1C(=O)NN=C2COc3cc4ccn([C@]5(C)CCNC5)c4cc3N21` [Example 165, (S)-1-Methyl-10-((R)-3-methyl-pyrrolidin-3-yl)-3,5-dihydro-10H-6-oxa-3,4,10,11b-tetraaza-cyclopenta[b]phenanthren-2-one], for which the IC50 at PKCα (setting [2]) was 1000 to 10000 nM; against PKCθ it was 250 to 1000 nM.

Turning to `C[C@@H]1C(=O)NN=C2COc3cc(C(F)(F)F)c(NC4CNC4)cc3N21` (single isomer, unassigned) [Example 53-2, trifluoroacetic acid], the 50% inhibitory concentration (IC50) at PKCα (setting [2]) was in the range of 1000 to 10000 nM. Also, the EC50 in experiment [1] is less than 250 nM.

Consider `COc1cccc(-c2cc3c(cc2[C@@H]2CCN(C)C[C@@H]2C)N2C(=NNC(=O)[C@H]2C)CO3)c1F` [Example 237, (R)-6-((3R,4R)-1,3-Dimethyl-piperidin-4-yl)-7-(2-fluoro-3-methoxy-phenyl)-4-methyl-2,10-dihydro-9-oxa-1,2,4a-triaza-phenanthren-3-one], for which the concentration for half-maximal inhibition (IC50) on PKCθ is less than 250 nM. Besides, in experiment [1], the EC50 was less than 250 nM.

On to `CC1C(=O)NN=C2COc3cc(-c4ccccc4F)c(N4CC5CCC4CN5)cc3N21` (stereo not drawn) [Example 229], for which the IC50 at PKCα (setting [2]) is 1000 to 10000 nM; against PKCθ, 250 to 1000 nM.

`Cc1ccc(-c2cc3c(cc2[C@@H]2CCN(C)C[C@@H]2C)N2C(=NNC(=O)[C@H]2C)CO3)c(F)c1` [Example 200]: the IC50 at PKCα (setting [2]) is less than 250 nM. Moreover, in experiment [1], the EC50 is less than 250 nM.

Consider `CC1C(=O)NN=C2COc3cc(C(F)(F)F)c(NC4(C)CNC4)cc3N21` (stereo not drawn) [Example 81, 4-Methyl-6-(3-methyl-azetidin-3-ylamino)-7-trifluoromethyl-2,10-dihydro-9-oxa-1,2,4a-triaza-phenanthren-3-one], for which the concentration for half-maximal inhibition (IC50) at PKCα (setting [2]) fell in the range of 1000 to 10000 nM. Further, the EC50 in experiment [1] was 250 to 1000 nM.
